# Data reported in patent publication US20240425479A1, “HALO-SUBSTITUTED AMINO AZA-HETEROARYL COMPOUNDS AS INHIBITORS OF THE HAEMATOPOIETIC PROGENITOR KINASE 1 (HPK1)” (priority 2021, published 2024).
# Structures can show the parent of a compound that is named as a salt.
# Legend:
# [1] = target: Lck (h) (Homo sapiens, UniProt P06239); assay: Lck human STE kinase enzymatic radiometric assay; assay type: biochemical; conditions: for IC50: read-out: Lck IC50 nM Range
# Protocol: (b) Lck Human STE Kinase Enzymatic Radiometric Assay
# Lck (h) is incubated with 50 mM Tris pH 7.5, 0.1 mM EGTA, 0.1 mM Na3VO4, 250 uM KVEKIGEGTYGVVYK (Cdc2 peptide), 10 mM MgAcetate and [gamma-33P]-ATP (specific activity and concentration as required). The reaction is initiated by the addition of the Mg/ATP mix. After incubation for 40 minutes at room temperature, the reaction is stopped by the addition of phosphoric acid to a concentration of 0.5%, 10 μL of the reaction is then spotted onto a P30 filtermat and washed four times for 4 minutes in 0.425% phosphoric acid and once in methanol prior to drying and scintillation counting. For more details on the kinase assay procedures see: Gao, Y. et. al.; Biochem J., 451 (2): 313-328, 2013.
# [2] = target: T1, Recombinant (1-346) HPK1 (h) (Homo sapiens, UniProt Q92918); assay: HPK1 human STE kinase enzymatic radiometric assay; assay type: biochemical; conditions: read-out: HPK1 IC50 nM Range
# T1 construct: Recombinant (1-346) HPK1 (h) is incubated with 8 mM MOPS pH 7.0
# T1 sequence (Q92918 1-346): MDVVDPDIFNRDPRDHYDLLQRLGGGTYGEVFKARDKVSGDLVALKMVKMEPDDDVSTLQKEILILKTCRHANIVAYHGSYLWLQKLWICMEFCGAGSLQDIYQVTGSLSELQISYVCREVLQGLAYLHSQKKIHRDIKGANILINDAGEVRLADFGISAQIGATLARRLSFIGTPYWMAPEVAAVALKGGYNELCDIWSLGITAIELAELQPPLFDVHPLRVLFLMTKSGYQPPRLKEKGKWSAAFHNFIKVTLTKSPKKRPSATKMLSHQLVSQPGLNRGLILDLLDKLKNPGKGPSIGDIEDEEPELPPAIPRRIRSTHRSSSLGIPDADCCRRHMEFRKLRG
# Method in brief: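 Compounds in 3-fold, 9-point serial dilution; kinase (residues 1-346) phosphorylates myelin basic protein (0.33 mg/mL) using [gamma-33P]-ATP at pH 7.0 (MOPS, EDTA, Mg acetate) for 40 min, room temperature. Acid-quenched mixture filtered onto P30 mats; incorporated radioactivity read by scintillation counting.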
# Chain of Lck (h) (P06239 whole entry): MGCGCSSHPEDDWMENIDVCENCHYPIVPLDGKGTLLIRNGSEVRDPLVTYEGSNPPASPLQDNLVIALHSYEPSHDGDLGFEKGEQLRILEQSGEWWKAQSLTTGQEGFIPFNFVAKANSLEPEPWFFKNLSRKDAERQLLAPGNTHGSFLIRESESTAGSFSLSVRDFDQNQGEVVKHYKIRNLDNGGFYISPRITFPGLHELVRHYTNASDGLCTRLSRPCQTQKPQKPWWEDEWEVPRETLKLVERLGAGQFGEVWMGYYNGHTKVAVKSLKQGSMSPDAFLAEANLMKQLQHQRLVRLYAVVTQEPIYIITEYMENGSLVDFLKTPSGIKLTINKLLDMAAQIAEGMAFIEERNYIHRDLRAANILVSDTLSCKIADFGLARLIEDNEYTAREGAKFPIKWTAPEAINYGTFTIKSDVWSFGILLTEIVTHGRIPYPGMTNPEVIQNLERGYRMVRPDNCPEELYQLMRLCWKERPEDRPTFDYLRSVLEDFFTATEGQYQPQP
Compound,IC50 [1] [nM],IC50 [2] [nM],LcK IC50/HPK IC50 selectivity ([1]; ratio Lck IC50 / HPK1 IC50)
"Nc1nc(F)c(-c2ccc(N3CCN(C4CCC4)CC3)cc2)nc1-c1cc2c(cc1F)C(=O)NCC2 [Example I-48, 6-(3-amino-6-(4-(4-cyclobutylpiperazin-1-yl)phenyl)-5-fluoropyrazin-2-yl)-7-fluoro-3,4-dihydroisoquinolin-1(2H)-one]",> 1000,0.1 to 10,
"Nc1nc(F)c(-c2ccc(N3CCN(CCC4CC4)CC3)cc2)nc1-c1cc(F)c2c(c1)CCNC2=O [Example I-26, 6-(3-amino-6-(4-(4-(2-cyclopropylethyl)piperazin-1-yl)phenyl)-5-fluoropyrazin-2-yl)-8-fluoro-3,4-dihydroisoquinolin-1(2H)-one]",> 1000,0.1 to 10,
"CN(C)Cc1cc(-c2nc(-c3cc(F)c4c(=O)[nH]cc(F)c4c3)c(N)nc2F)ccc1C1CCOCC1 [Example I-121, 6-(3-amino-6-(3-((dimethylamino)methyl)-4-(tetrahydro-2H-pyran-4-yl)phenyl)-5-fluoropyrazin-2-yl)-4,8-difluoroisoquinolin-1(2H)-one]",> 1000,0.1 to 10,
"Cc1cc2cc(-c3nc(-c4ccc(C5CCOCC5)c(CN(C)C)c4)c(F)nc3N)cc(F)c2c(=O)[nH]1 [Example I-100, 6-(3-amino-6-(3-((dimethylamino)methyl)-4-(tetrahydro-2H-pyran-4-yl)phenyl)-5-fluoropyrazin-2-yl)-8-fluoro-3-methylisoquinolin-1(2H)-one]",> 1000,0.1 to 10,
"CC(C)N1CCN(c2ccc(-c3nc(-c4ccc5c(=O)[nH]ccc5c4)c(N)nc3F)cc2)CC1 [Example I-20, 6-(3-amino-5-fluoro-6-(4-(4-isopropylpiperazin-1-yl)phenyl)pyrazin-2-yl)isoquinolin-1(2H)-one]",> 1000,0.1 to 10,
"CNCC1Cc2cc(-c3nc(-c4ccc(N5CCN(C(C)C)CC5)cc4)c(F)nc3N)ccc2C(=O)N1 (stereo not shown) [Example I-11, 6-(3-amino-5-fluoro-6-(4-(4-isopropylpiperazin-1-yl)phenyl)pyrazin-2-yl)-3-((methylamino)methyl)-3,4-dihydroisoquinolin-1(2H)-one]",> 1000,0.1 to 10,
"COc1ccc(-c2nc(-c3ccc4c(=O)[nH]cc(F)c4c3)c(N)nc2F)cc1CN(C)C [Example I-267, 6-(3-amino-6-(3-((dimethylamino)methyl)-4-methoxyphenyl)-5-fluoropyrazin-2-yl)-4-fluoroisoquinolin-1(2H)-one]",> 1000,0.1 to 10,
"Nc1nc(F)c(-c2ccc(N3CCOCC3)c(CN3CCCC3)c2)nc1-c1ccc2c(c1)CCNC2=O [Example I-113, 6-(3-amino-5-fluoro-6-(4-morpholino-3-(pyrrolidin-1-ylmethyl)phenyl)pyrazin-2-yl)-3,4-dihydroisoquinolin-1(2H)-one]",> 1000,0.1 to 10,
"Nc1nc(F)c(-c2ccc(C3CCN(CC4CC4)CC3)cc2)nc1-c1cc(F)c2c(c1)CCNC2=O [Example I-13, 6-(3-amino-6-(4-(1-(cyclopropylmethyl)piperidin-4-yl)phenyl)-5-fluoropyrazin-2-yl)-8-fluoro-3,4-dihydroisoquinolin-1(2H)-one Formate]",> 1000,0.1 to 10,
"CC(C)N1C[C@H]2C[C@@]2(c2ccc(-c3nc(-c4cc5c(cc4F)C(=O)NCC5)c(N)nc3F)cc2)C1 [Example I-4, 6-(3-amino-5-fluoro-6-(4-((1R,5S)-3-isopropyl-3-azabicyclo[3.1.0]hexan-1-yl)phenyl)pyrazin-2-yl)-7-fluoro-3,4-dihydroisoquinolin-1(2H)-one]",> 1000,0.1 to 10,
Nc1nc(F)c(-c2ccc(N3CCOCC3)cc2)nc1-c1ccc2c(c1)CCNC2=O [drawing 1319],,,>1666

# Further lines, with some results ahead:
IC50 [1] [nM],IC50 [2] [nM],Compound,LcK IC50/HPK IC50 selectivity ([1]; ratio Lck IC50 / HPK1 IC50)
> 1000,0.1 to 10,"CC(C)N1C[C@H]2C[C@@]2(c2ccc(-c3nc(-c4cc(F)c5c(c4)CCNC5=O)c(N)nc3F)cc2)C1 [Example I-15, 6-(3-amino-5-fluoro-6-(4-((1R,5S)-3-isopropyl-3-azabicyclo[3.1.0]hexan-1-yl)phenyl)pyrazin-2-yl)-8-fluoro-3,4-dihydroisoquinolin-1(2H)-one formate]",
> 1000,0.1 to 10,"CN(C)Cc1cc(-c2nc(-c3ccc4c(c3)CCNC4=O)c(N)nc2F)ccc1N1CCOCC1 [Example I-64, 6-(3-amino-6-(3-((dimethylamino)methyl)-4-morpholinophenyl)-5-fluoropyrazin-2-yl)-3,4-dihydroisoquinolin-1(2H)-one]",
> 1000,0.1 to 10,"CN1C[C@H]2C[C@@]2(c2ccc(-c3nc(-c4cc5c(cc4F)C(=O)NCC5)c(N)nc3F)cc2)C1 [Example I-3, 6-(3-amino-5-fluoro-6-(4-((1R,5S)-3-methyl-3-azabicyclo[3.1.0]hexan-1-yl)phenyl)pyrazin-2-yl)-7-fluoro-3,4-dihydroisoquinolin-1(2H)-one]",
> 1000,0.1 to 10,"CCN(C)Cc1cc(-c2nc(-c3ccc4c(=O)[nH]cc(F)c4c3)c(N)nc2F)ccc1C1CCOCC1 [Example I-238, 6-(3-amino-6-(3-((ethyl(methyl)amino)methyl)-4-(tetrahydro-2H-pyran-4-yl)phenyl)-5-fluoropyrazin-2-yl)-4-fluoroisoquinolin-1(2H)-one]",
> 1000,0.1 to 10,"C[C@@H]1CN(c2ccc(-c3nc(-c4ccc5c(c4)C(F)(F)CNC5=O)c(N)nc3F)cc2CN(C)C)C[C@H](C)O1 [Example I-257, 6-(3-amino-6-(3-((dimethylamino)methyl)-4-((2R,6S)-2,6-dimethylmorpholino)phenyl)-5-fluoropyrazin-2-yl)-4,4-difluoro-3,4-dihydroisoquinolin-1(2H)-one]",
> 1000,0.1 to 10,"Cc1c[nH]c(=O)c2ccc(-c3nc(-c4ccc(N5CCN(CC6CC6)CC5)cc4)c(F)nc3N)cc12 [Example I-72, 6-(3-amino-6-(4-(4-(cyclopropylmethyl)piperazin-1-yl)phenyl)-5-fluoropyrazin-2-yl)-4-methylisoquinolin-1(2H)-one]",
> 1000,11 to 100,"Cc1nc2cc(-c3nc(-c4ccc(N5CCN(C(C)C)CC5)cc4)c(F)nc3N)ccc2c(=O)[nH]1 [Example I-39, 7-(3-amino-5-fluoro-6-(4-(4-isopropylpiperazin-1-yl)phenyl)pyrazin-2-yl)-2-methylquinazolin-4(3H)-one]",
> 1000,0.1 to 10,"CCN(C)Cc1cc(-c2nc(-c3cc(F)c4c(c3)CCNC4=O)c(N)nc2F)ccc1C1CCOCC1 [Example I-165, 6-(3-amino-6-(3-((ethyl(methyl)amino)methyl)-4-(tetrahydro-2H-pyran-4-yl)phenyl)-5-fluoropyrazin-2-yl)-8-fluoro-3,4-dihydroisoquinolin-1(2H)-one]",
> 1000,0.1 to 10,"Nc1nc(F)c(-c2ccc(N3CCN(CC4CC4)CC3)cc2)nc1-c1ccc2c(=O)[nH]ccc2c1 [Example I-23, 6-(3-amino-6-(4-(4-(cyclopropylmethyl)piperazin-1-yl)phenyl)-5-fluoropyrazin-2-yl)isoquinolin-1(2H)-one]",
101 to 1000,0.1 to 10,"Nc1nc(F)c(-c2ccc(N3CCN(CC4CC4)CC3)cc2)nc1-c1cc2cc[nH]c(=O)c2cc1F [Example I-25, 6-(3-amino-6-(4-(4-(cyclopropylmethyl)piperazin-1-yl)phenyl)-5-fluoropyrazin-2-yl)-7-fluoroisoquinolin-1(2H)-one]",
101 to 1000,0.1 to 10,"CC(C)N1CCN(c2ccc(-c3nc(-c4cc5cc[nH]c(=O)c5cc4F)c(N)nc3F)cc2)CC1 [Example I-22, 6-(3-amino-5-fluoro-6-(4-(4-isopropylpiperazin-1-yl)phenyl)pyrazin-2-yl)-7-fluoroisoquinolin-1(2H)-one]",
101 to 1000,0.1 to 10,"Nc1nc(F)c(-c2ccc(N3CCN(CC4CC4)CC3)cc2)nc1-c1cc(F)c2c(=O)[nH]ccc2c1 [Example I-24, 6-(3-amino-6-(4-(4-(cyclopropylmethyl)piperazin-1-yl)phenyl)-5-fluoropyrazin-2-yl)-8-fluoroisoquinolin-1(2H)-one]",
101 to 1000,0.1 to 10,"CC(C)N1CCN(c2ccc(-c3nc(-c4cc(F)c5c(c4)CCNC5=O)c(N)nc3F)cc2)CC1 [Example I-14, 6-(3-amino-5-fluoro-6-(4-(4-isopropylpiperazin-1-yl)phenyl)pyrazin-2-yl)-8-fluoro-3,4-dihydroisoquinolin-1(2H)-one]",
101 to 1000,0.1 to 10,"CC(C)N1CCC(c2ccc(-c3nc(-c4cc(F)c5c(c4)CCNC5=O)c(N)nc3F)cc2)CC1 [Example I-10, 6-(3-amino-5-fluoro-6-(4-(1-isopropylpiperidin-4-yl)phenyl)pyrazin-2-yl)-8-fluoro-3,4-dihydroisoquinolin-1(2H)-one]",
